{"source": "ChEMBL document CHEMBL1201862", "about": "“PubChem BioAssay data set” (2004)", "test_in_all_cases": "DTP human tumour cell line panel, 48 h", "key": {"HOP-18": {"test_system": "HOP-18"}, "HCC 2998": {"test_system": "HCC 2998"}, "SN12C": {"test_system": "SN12C"}, "Malme-3M": {"test_system": "Malme-3M"}, "COLO 205": {"test_system": "COLO 205"}, "OVCAR-4": {"test_system": "OVCAR-4"}, "RXF 631": {"test_system": "RXF 631"}, "SK-MEL-2": {"test_system": "SK-MEL-2"}, "NCI-H460": {"test_system": "NCI-H460"}, "DMS-273": {"test_system": "DMS-273"}, "SNB-19": {"test_system": "SNB-19"}, "K562": {"test_system": "K562"}, "EKVX": {"test_system": "EKVX"}, "NCI-H23": {"test_system": "NCI-H23"}, "SK-MEL-5": {"test_system": "SK-MEL-5"}, "786-0": {"test_system": "786-0"}, "IGROV-1": {"test_system": "IGROV-1"}, "CAKI-1": {"test_system": "CAKI-1"}, "A549": {"test_system": "A549"}, "U-251": {"test_system": "U-251"}, "XF498": {"test_system": "XF498"}, "SF-539": {"test_system": "SF-539"}, "KM12": {"test_system": "KM12"}, "OVCAR-8": {"test_system": "OVCAR-8"}, "KM-20L2": {"test_system": "KM-20L2"}, "NCI-H226": {"test_system": "NCI-H226"}, "HL-60": {"test_system": "HL-60"}, "SR": {"test_system": "SR"}, "HOP-62": {"test_system": "HOP-62"}, "UACC-257": {"test_system": "UACC-257"}, "M19-MEL": {"test_system": "M19-MEL"}, "MOLT-4": {"test_system": "MOLT-4"}, "HCT-116": {"test_system": "HCT-116"}, "UO-31": {"test_system": "UO-31"}, "LXFL 529": {"test_system": "LXFL 529"}, "OVCAR-5": {"test_system": "OVCAR-5"}, "SW-620": {"test_system": "SW-620"}, "TK-10": {"test_system": "TK-10"}, "ACHN": {"test_system": "ACHN"}, "OVCAR-3": {"test_system": "OVCAR-3"}, "SF-268": {"test_system": "SF-268"}, "SF-295": {"test_system": "SF-295"}, "DMS-114": {"test_system": "DMS-114"}, "RPMI-8226": {"test_system": "RPMI-8226"}, "SNB-75": {"test_system": "SNB-75"}, "M14": {"test_system": "M14"}, "HCT-15": {"test_system": "HCT-15"}, "HT-29": {"test_system": "HT-29"}, "SNB-78": {"test_system": "SNB-78"}, "UACC-62": {"test_system": "UACC-62"}, "HOP-92": {"test_system": "HOP-92"}, "SK-OV-3": {"test_system": "SK-OV-3"}, "RXF 393": {"test_system": "RXF 393"}, "A498": {"test_system": "A498"}, "DLD-1": {"test_system": "DLD-1"}}, "note": "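How tested: cells in 96-well plates exposed to compound for 48 hours at five concentrations. GI50 = concentration required for 50% inhibition of growth.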 Calls of active or inactive are those of the source. Rule as the data show it: active = GI50 up to about 1.1 µM and inactive = higher.", "data": [{"smiles": "CN(C)/C=N/c1nc2c(ncn2C2OC(CO)C(O)C2O)c(=O)[nH]1", "note": "(stereo not given)", "values": [{"measurement": "GI50", "setting": "HOP-18", "result": "> 100 µM (inactive)"}, {"measurement": "GI50", "setting": "HCC 2998", "result": "> 100 µM (inactive)"}, {"measurement": "GI50", "setting": "SN12C", "result": "> 100 µM (inactive)"}, {"measurement": "GI50", "setting": "Malme-3M", "result": "> 100 µM (inactive)"}, {"measurement": "GI50", "setting": "COLO 205", "result": "> 100 µM (inactive)"}, {"measurement": "GI50", "setting": "OVCAR-4", "result": "> 100 µM (inactive)"}, {"measurement": "GI50", "setting": "RXF 631", "result": "> 100 µM (inactive)"}, {"measurement": "GI50", "setting": "SK-MEL-2", "result": "> 100 µM (inactive)"}, {"measurement": "GI50", "setting": "NCI-H460", "result": "> 100 µM (inactive)"}, {"measurement": "GI50", "setting": "DMS-273", "result": "> 100 µM (inactive)"}, {"measurement": "GI50", "setting": "SNB-19", "result": "> 100 µM (inactive)"}, {"measurement": "GI50", "setting": "K562", "result": "> 100 µM (inactive)"}, {"measurement": "GI50", "setting": "EKVX", "result": "> 100 µM (inactive)"}, {"measurement": "GI50", "setting": "NCI-H23", "result": "> 100 µM (inactive)"}, {"measurement": "GI50", "setting": "SK-MEL-5", "result": "> 100 µM (inactive)"}, {"measurement": "GI50", "setting": "786-0", "result": "> 100 µM (inactive)"}, {"measurement": "GI50", "setting": "IGROV-1", "result": "> 100 µM (inactive)"}, {"measurement": "GI50", "setting": "CAKI-1", "result": "> 100 µM (inactive)"}, {"measurement": "GI50", "setting": "A549", "result": "> 100 µM (inactive)"}, {"measurement": "GI50", "setting": "U-251", "result": "> 100 µM (inactive)"}, {"measurement": "GI50", "setting": "XF498", "result": "> 100 µM (inactive)"}, {"measurement": "GI50", "setting": "SF-539", "result": "> 100 µM (inactive)"}, {"measurement": "GI50", "setting": "KM12", "result": "> 100 µM (inactive)"}, {"measurement": "GI50", "setting": "OVCAR-8", "result": "> 100 µM (inactive)"}, {"measurement": "GI50", "setting": "KM-20L2", "result": "> 100 µM (inactive)"}, {"measurement": "GI50", "setting": "NCI-H226", "result": "> 100 µM (inactive)"}, {"measurement": "GI50", "setting": "HL-60", "result": "> 100 µM (inactive)"}, {"measurement": "GI50", "setting": "SR", "result": "> 100 µM (inactive)"}, {"measurement": "GI50", "setting": "HOP-62", "result": "> 100 µM (inactive)"}, {"measurement": "GI50", "setting": "UACC-257", "result": "> 100 µM (inactive)"}, {"measurement": "GI50", "setting": "M19-MEL", "result": "> 100 µM (inactive)"}, {"measurement": "GI50", "setting": "MOLT-4", "result": "> 100 µM (inactive)"}, {"measurement": "GI50", "setting": "HCT-116", "result": "> 100 µM (inactive)"}, {"measurement": "GI50", "setting": "UO-31", "result": "> 100 µM (inactive)"}, {"measurement": "GI50", "setting": "LXFL 529", "result": "> 100 µM (inactive)"}, {"measurement": "GI50", "setting": "OVCAR-5", "result": "> 100 µM (inactive)"}, {"measurement": "GI50", "setting": "SW-620", "result": "> 100 µM (inactive)"}, {"measurement": "GI50", "setting": "TK-10", "result": "> 100 µM (inactive)"}, {"measurement": "GI50", "setting": "ACHN", "result": "> 100 µM (inactive)"}, {"measurement": "GI50", "setting": "OVCAR-3", "result": "> 100 µM (inactive)"}, {"measurement": "GI50", "setting": "SF-268", "result": "> 100 µM (inactive)"}, {"measurement": "GI50", "setting": "SF-295", "result": "> 100 µM (inactive)"}, {"measurement": "GI50", "setting": "DMS-114", "result": "> 100 µM (inactive)"}, {"measurement": "GI50", "setting": "RPMI-8226", "result": "> 100 µM (inactive)"}, {"measurement": "GI50", "setting": "SNB-75", "result": "> 100 µM (inactive)"}, {"measurement": "GI50", "setting": "M14", "result": "> 100 µM (inactive)"}, {"measurement": "GI50", "setting": "HCT-15", "result": "> 100", "unit": "µM"}, {"measurement": "GI50", "setting": "HT-29", "result": "> 100 µM (inactive)"}, {"measurement": "GI50", "setting": "SNB-78", "result": "> 100 µM (inactive)"}, {"measurement": "GI50", "setting": "UACC-62", "result": "> 100 µM (inactive)"}, {"measurement": "GI50", "setting": "HOP-92", "result": "> 100 µM (inactive)"}, {"measurement": "GI50", "setting": "SK-OV-3", "result": "> 100 µM (inactive)"}, {"measurement": "GI50", "setting": "RXF 393", "result": "> 100 µM (inactive)"}, {"measurement": "GI50", "setting": "A498", "result": "> 100 µM (inactive)"}, {"measurement": "GI50", "setting": "DLD-1", "result": "> 100 µM (inactive)"}]}]}
